Test results published in patent US20240382651A1, “BUPIVACAINE-COLLAGEN DRUG DELIVERY IMPLANT AND METHODS OF MAKING AND USING THEREOF” (INNOCOLL PHARMACEUTICALS LIMITED, priority 2021, published 2024).
Counter-ions that a name gives are not always drawn.

Assay: Genotoxicity studies of bupivacaine HCl (4 in vitro, 2 in vivo)
Conditions: 4 in vitro studies and 2 in vivo studies
Excerpt: The distribution, metabolism, and excretion of bupivacaine across species is characterized in the literature including data showing that, following absorption, bupivacaine is rapidly and readily distributed to tissues, with the highest concentrations in highly perfused tissues. In general, the metabolic profile of bupivacaine is similar across species although quantitatively different, with no novel metabolite identified in humans (Goehl, et al., 1973, Carson 2000). The excretion of bupivacaine in monkeys and humans is predominantly in the urine; in rats, excretion in urine and feces is generally similar; and in dogs, only small amounts of excretion of bupivacaine in the urine have been reported.

## CCCCN1CCCCC1C(=O)Nc1c(C)cccc1C (stereo not shown) [bupivacaine HCl]
  Genotoxicity: no safety concerns identified
